Experimental data as given in patent US7462600B2, “Macrolides” (Pfizer Inc, priority 2004, dated 2008).
Converted amounts (≈) assume the structure as drawn. Where two headings read alike, the source gives them in different places.

Assays:
Type in all cases: cell-based
[1] = system: Streptococcus pyogenes 1079; assay: MIC, microtiter broth dilution (NCCLS M100-S14), S. pyogenes 1079 (ermB)
How it was run: (§1)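 Antibacterial activity is expressed as the MIC from broth microdilution. Reading follows the NCCLS M100-S14 performance standards, and stocks are made in DMSO at 40 mg/ml.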

[2] = system: Streptococcus pneumoniae 1016; assay: MIC, microtiter broth dilution (NCCLS M100-S14), S. pneumoniae 1016 (susceptible)
How it was run: as §1

[3] = system: Streptococcus pneumoniae 1175; conditions: microtiter broth dilution
How it was run: as §1

[4] = system: Streptococcus pneumoniae 1095; conditions: microtiter broth dilution
How it was run: as §1

[5] = system: Haemophilus influenzae 1218; assay: MIC, microtiter broth dilution (NCCLS M100-S14), H. influenzae 1218 (susceptible)
How it was run: as §1

[6] = S. pneumoniae 1016 (susceptible)
[7] = H. influenzae 1218 (susceptible)

SMILES	MIC S. pyogenes 1079 ([1]; Streptococcus pyogenes 1079) [µg/mL]	MIC S. pneumo. 1016 ([2]; Streptococcus pneumoniae 1016) [µg/mL]	MIC S. pneumo. 1175 ([3]; Streptococcus pneumoniae 1175) [µg/mL]	MIC S. pneumo. 1095 ([4]; Streptococcus pneumoniae 1095) [µg/mL]	MIC H. influenzae 1218 ([5]; Haemophilus influenzae 1218) [µg/mL]	MIC S. pyogenes 1079 ([1]; S. pyogenes 1079 (ermB)) [µg/mL]	MIC S. pneumo. 1016 [2, 6] [µg/mL]	MIC S. pneumo. 1175 ([3]; S. pneumoniae 1175 (mefA)) [µg/mL]	MIC S. pneumo. 1095 ([4]; S. pneumoniae 1095 (ermB)) [µg/mL]	MIC H. influenzae 1218 [5, 7] [µg/mL]
CCC1OC(=O)C(C)C(=O)C(C)C(OC2OC(C)CC(N(C)C)C2O)C(C)(OC)CC(C)C(=O)C(C)C2N(C3CN(Cc4c(Br)cnc5cccnc45)C3)C(=O)OC12C (stereo not drawn) [Example 1.106, 3-descladinosyl-11,12-dideoxy-6-O-methyl-3-oxo-12,11-(oxycarbonyl-(1-(3-bromo-1,5-naphthyridine-4-methyl)-azetidin-3-yl)-imino)-erythromycin A]	0.25 (≈ 0.281 µM)	<0.063	<0.063	<0.063	1 (≈ 1.12 µM)					
CCC1OC(=O)C(C)C(=O)C(C)C(OC2OC(C)CC(N(C)C)C2O)C(C)(OC)CC(C)C(=O)C(C)C2N(CC3CCCN3Cc3cccnc3OC)C(=O)OC12C (stereo not drawn) [12.02]						>64.00	<0.06	8 (≈ 9.79 µM)	8 (≈ 9.79 µM)	16 (≈ 19.6 µM)
CC[C@H]1OC(=O)[C@H](C)C(=O)[C@H](C)[C@@H](O[C@@H]2O[C@H](C)C[C@H](N(C)C)[C@H]2O)[C@](C)(OC)C[C@@H](C)C(=O)[C@H](C)[C@H]2N(CC3(C)CN(Cc4cccc5nccnc45)C3)C(=O)O[C@]12C [6.05]	>64.00	<0.06	0.12 (≈ 0.143 µM)	<0.06	1 (≈ 1.19 µM)					
CC[C@H]1OC(=O)[C@H](C)[C@@H](OC(=O)N2CCCC2)[C@H](C)[C@@H](O[C@@H]2O[C@H](C)C[C@H](N(C)C)[C@H]2O)[C@](C)(OC)C[C@@H](C)C(=O)[C@H](C)[C@H]2N(CC3CN(C(=O)c4cccc5cccnc45)C3)C(=O)O[C@]12C [Example 5.07, 2-R^2: quinoline-8-carboxyl; R^#: pyrrolidin-1-yl]	16 (≈ 17.1 µM)	<0.06	<0.06	0.25 (≈ 0.267 µM)	4 (≈ 4.27 µM)					
CCC1OC(=O)C(C)C(=O)C(C)C(OC2OC(C)CC(N(C)C)C2O)C(C)(OC)CC(C)C(=O)C(C)C2N(C3CN(C(c4ccccc4)c4cccnc4)C3)C(=O)OC12C (single isomer, unassigned) [Example 1.67, phenyl-(pyridin-3-yl)methyl (*)]	16 (≈ 19.2 µM)	<0.06	<0.06	<0.06	0.5 (≈ 0.599 µM)					
CCC1OC(=O)C(C)C(=O)C(C)C(OC2OC(C)CC(N(C)C)C2O)C(C)(OC)CC(C)C(=O)C(C)C2N(CC3CN(Cc4cnc5ccccc5n4)C3)C(=O)OC12C (stereo not drawn) [4.12]	64 (≈ 77.7 µM)	<0.06	0.12 (≈ 0.146 µM)	8 (≈ 9.71 µM)	1 (≈ 1.21 µM)					
CCC1OC(=O)C(C)C(=O)C(C)C(OC2OC(C)CC(N(C)C)C2O)C(C)(OC)CC(C)C(=O)C(C)C2N(CC3CCN(Cc4cnc5ccccc5c4)C3)C(=O)OC12C (stereo not drawn) [11.03]						64 (≈ 76.5 µM)	<0.06	0.5 (≈ 0.597 µM)	<0.06	2 (≈ 2.39 µM)
CCC1OC(=O)C(C)C(=O)C(C)C(OC2OC(C)CC(N(C)C)C2O)C(C)(OC)CC(C)C(=O)C(C)C2N(C3CN(C(=O)c4ccnc(-n5cnnn5)c4)C3)C(=O)OC12C (stereo not drawn) [Example 2.19, 2-(1H-tetrazol-1-yl)pyridine-4-carboxyl]	>64.00	<0.06	0.5 (≈ 0.595 µM)	>64.00	32 (≈ 38.1 µM)					
CCC1OC(=O)C(C)C(=O)C(C)C(OC2OC(C)CC(N(C)C)C2O)C(C)(OC)CC(C)C(=O)C(C)C2N(C3CN(S(=O)(=O)c4ccc(-c5nnco5)cc4)C3)C(=O)OC12C (stereo not drawn) [Example 3.56, 3-descladinosyl-11,12-dideoxy-6-O-methyl-3-oxo-12,11-(oxycarbonyl-(1-(4-(1,3,4-oxadiazol-2-yl)benzenesulfonyl)-azetidin-3-yl)-imino)-erythromycin A]	0.5 (≈ 0.571 µM)	<0.06	<0.06	<0.06	1 (≈ 1.14 µM)					
CCC1OC(=O)C(C)C(=O)C(C)C(OC2OC(C)CC(N(C)C)C2O)C(C)(OC)CC(C)C(=O)C(C)C2N(C3CN(S(=O)(=O)c4cnc5ccccn45)C3)C(=O)OC12C (stereo not drawn) [Example 3.15, 3-descladinosyl-11,12-dideoxy-6-O-methyl-3-oxo-12,11-(oxycarbonyl-(1-(H-imidazo[1,2-a]pyridine-3-sulfonyl)-azetidin-3-yl)-imino)-erythromycin A]	1 (≈ 1.18 µM)	<0.06	<0.06	<0.06	0.25 (≈ 0.295 µM)					
CCC1OC(=O)C(C)C(=O)C(C)C(OC2OC(C)CC(N(C)C)C2O)C(C)(OC)CC(C)C(=O)C(C)C2N(CC3CCCN3C(=O)c3cnc4ccccc4c3)C(=O)OC12C (stereo not drawn) [10.07]						>64.00	<0.06	0.25 (≈ 0.294 µM)	<0.06	2 (≈ 2.35 µM)
CCC1OC(=O)C(C)C(=O)C(C)C(OC2OC(C)CC(N(C)C)C2O)C(C)(OC)CC(C)C(=O)C(C)C2N(CC3CN(Cc4cnc5cnccn45)C3)C(=O)OC12C (stereo not drawn) [4.28]	>64.00	<0.06	1 (≈ 1.23 µM)	8 (≈ 9.84 µM)	0.25 (≈ 0.308 µM)					
CCC1OC(=O)C(C)C(=O)C(C)C(OC2OC(C)CC(N(C)C)C2O)C(C)(OC)CC(C)C(=O)C(C)C2N(C3CN(S(=O)(=O)c4cn(C)c(C)n4)C3)C(=O)OC12C (stereo not drawn) [Example 3.28]	>64.00	<0.06	4 (≈ 4.84 µM)	<0.06	1 (≈ 1.21 µM)					
CCC1OC(=O)C(C)C(=O)C(C)C(OC2OC(C)CC(N(C)C)C2O)C(C)(OC)CC(C)C(=O)C(C)C2N(C3CN(C(=O)c4ccc(-n5ccnc5)cc4)C3)C(=O)OC12C (stereo not drawn) [Example 2.14]	>64.00	<0.06	0.25 (≈ 0.298 µM)	2 (≈ 2.39 µM)	4 (≈ 4.77 µM)					
CC[C@H]1OC(=O)[C@H](C)[C@@H](OC(=O)N2CCCC2c2cccc(F)c2)[C@H](C)[C@@H](O[C@@H]2O[C@H](C)C[C@H](N(C)C)[C@H]2O)[C@](C)(OC)C[C@@H](C)C(=O)[C@H](C)[C@H]2N(CC3CN(Cc4c[nH]c5ncccc45)C3)C(=O)O[C@]12C (stereo partly drawn) [Example 5.06, 3-descladinosyl-11,12-dideoxy-4-O-methyl-12,11-(oxycarbonyl-(1-((1H-pyrrolo[2,3-b]pyridin-3-yl)-methyl)-(azetidin-3-yl)-methyl)-imino)-3-((2-(3-fluorophenyl)-pyrrolidine)-1-carbonyl)-erythromycin A]	0.25 (≈ 0.249 µM)	<0.06	<0.06	<0.06	2 (≈ 1.99 µM)					
